Results reported in patent publication US10858364B2, “Imidazopyrazine inhibitors of Bruton's tyrosine kinase” (Acerta Pharma B.V., priority 2016, dated 2020).

Tests used:
ERBB4 = ERBB4 (Homo sapiens (Human), UniProt Q15303); assay: ERBB4 Z'-LYTE kinase assay; assay type: biochemical; details: 1 h pre-incubation, Km ATP
Procedure: BMX, TXK, EGFR, ERBB2, ERBB4, JAK3, BLK kinase activity was measured using the Z′-LYTE assay at Thermo Fisher. A 10-point dose response (final concentration in assay ranged from 10 μM to 0.5 nM in 3-fold dilution per dilution step) was generated with 1 h incubation of the test compound with the kinase prior to initiation of the kinase reaction by the addition of ATP. ATP concentration in the assay was Km ATP for the different kinases. IC50 values are determined by curve fitting of the experimental results at Thermo Fisher.

BTK [1] = target: T1, BTK (Homo sapiens (Human), UniProt Q06187); assay: BTK target occupancy ELISA in Ramos B cells; assay type: cell-based; details: 2h incubation
T1 sequence (Q06187 whole entry): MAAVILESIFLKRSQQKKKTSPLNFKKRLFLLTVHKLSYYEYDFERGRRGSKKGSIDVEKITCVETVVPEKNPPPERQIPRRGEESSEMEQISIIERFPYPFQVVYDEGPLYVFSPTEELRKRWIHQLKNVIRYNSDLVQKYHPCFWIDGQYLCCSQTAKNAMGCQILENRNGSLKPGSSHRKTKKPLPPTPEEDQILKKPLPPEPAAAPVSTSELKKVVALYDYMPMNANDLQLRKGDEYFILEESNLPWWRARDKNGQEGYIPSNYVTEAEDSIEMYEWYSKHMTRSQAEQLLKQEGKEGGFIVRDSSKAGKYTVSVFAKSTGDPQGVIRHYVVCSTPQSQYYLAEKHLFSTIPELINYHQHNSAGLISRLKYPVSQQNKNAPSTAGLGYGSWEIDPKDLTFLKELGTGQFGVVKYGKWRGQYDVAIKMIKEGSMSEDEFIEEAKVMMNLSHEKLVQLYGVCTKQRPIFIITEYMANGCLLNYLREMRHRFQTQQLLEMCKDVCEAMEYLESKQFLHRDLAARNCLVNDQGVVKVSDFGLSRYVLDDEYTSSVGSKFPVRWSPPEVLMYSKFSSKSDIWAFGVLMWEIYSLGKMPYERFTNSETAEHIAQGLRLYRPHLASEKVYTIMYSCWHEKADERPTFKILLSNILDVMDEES
Procedure: Ramos B cells (ATCC, cat no. CRL-1923) were plated in 24-wells culture plates at 2×10^6 cells per well in a total volume of 900 μL DMEMF12+10% FBS+2 mM L-Glutamine+Pen/Strep. Allow the cells to rest 1 h at 5-7% CO2 and 37° C. Serial dilutions log 10 from 10 mM to 316 nM of test compounds are made in 100% DMSO, followed by a 100-fold dilution into culture medium. For each well, 100 μL was then transferred to well plate containing 900 μL of Ramos B cells. Final compound concentration range in the assay varied from 10 μM to 0.316 nM, with a final DMSO concentration of 0.1% and incubated at 5-7% CO2 and 37° C. for 2h. Afterwards, cells are collected for the measurement of the BTK target occupancy using the BTK target occupancy ELISA as outlined below. The percent of drug-bound BTK in Ramos B cell samples was determined by an ELISA based method as follows: OptiPlate 96-well plates (Perkin Elmer) were coated with 125 ng/well anti-BTK Ab (BD Biosciences) and blocked with BSA (Sigma-Aldrich). […] One hundred L/well of SuperSignal ELISA Femto Substrate (ThermoFisher Scientific) was added and then chemiluminescence was measured after 1 minute (EnVision® plate reader; PerkinElmer). The percent of BTK occupancy for each sample was calculated relative to the vehicle control. […] Ramos cells were incubated with a dose range of M27 and BTK target occupancy was determined by ELISA.

[2] = system: all available kinases (KINOMEscan); assay: KINOMEscan (DiscoveRx scanMAX) profiling, selectivity score; assay type: binding; details: single dose of 1 μM
Procedure: (§1) Kinase profiling was performed with M27 was done at DiscoveRx at a single dose of 1 μM on all available kinases (KINOMEscan). The overall kinase selectivity score is in Table 6. […] Kinases inhibited >65% at 1 μM for M27 were followed up with a dose response at DiscoveRx. The M27 had IC50 values <1 μM for almost the same set of kinases with exception of TXK, but with additional inhibition of BRK (PTK6).

BTK [3] = target: T1, BTK; assay: DiscoveRx Kd dose response, BTK; assay type: binding
Procedure: as §1

ERBB2 = ERBB2 (Homo sapiens (Human), UniProt P04626); assay: DiscoveRx Kd dose response, ERBB2; assay type: binding
Chain of ERBB2 (P04626 23-1255): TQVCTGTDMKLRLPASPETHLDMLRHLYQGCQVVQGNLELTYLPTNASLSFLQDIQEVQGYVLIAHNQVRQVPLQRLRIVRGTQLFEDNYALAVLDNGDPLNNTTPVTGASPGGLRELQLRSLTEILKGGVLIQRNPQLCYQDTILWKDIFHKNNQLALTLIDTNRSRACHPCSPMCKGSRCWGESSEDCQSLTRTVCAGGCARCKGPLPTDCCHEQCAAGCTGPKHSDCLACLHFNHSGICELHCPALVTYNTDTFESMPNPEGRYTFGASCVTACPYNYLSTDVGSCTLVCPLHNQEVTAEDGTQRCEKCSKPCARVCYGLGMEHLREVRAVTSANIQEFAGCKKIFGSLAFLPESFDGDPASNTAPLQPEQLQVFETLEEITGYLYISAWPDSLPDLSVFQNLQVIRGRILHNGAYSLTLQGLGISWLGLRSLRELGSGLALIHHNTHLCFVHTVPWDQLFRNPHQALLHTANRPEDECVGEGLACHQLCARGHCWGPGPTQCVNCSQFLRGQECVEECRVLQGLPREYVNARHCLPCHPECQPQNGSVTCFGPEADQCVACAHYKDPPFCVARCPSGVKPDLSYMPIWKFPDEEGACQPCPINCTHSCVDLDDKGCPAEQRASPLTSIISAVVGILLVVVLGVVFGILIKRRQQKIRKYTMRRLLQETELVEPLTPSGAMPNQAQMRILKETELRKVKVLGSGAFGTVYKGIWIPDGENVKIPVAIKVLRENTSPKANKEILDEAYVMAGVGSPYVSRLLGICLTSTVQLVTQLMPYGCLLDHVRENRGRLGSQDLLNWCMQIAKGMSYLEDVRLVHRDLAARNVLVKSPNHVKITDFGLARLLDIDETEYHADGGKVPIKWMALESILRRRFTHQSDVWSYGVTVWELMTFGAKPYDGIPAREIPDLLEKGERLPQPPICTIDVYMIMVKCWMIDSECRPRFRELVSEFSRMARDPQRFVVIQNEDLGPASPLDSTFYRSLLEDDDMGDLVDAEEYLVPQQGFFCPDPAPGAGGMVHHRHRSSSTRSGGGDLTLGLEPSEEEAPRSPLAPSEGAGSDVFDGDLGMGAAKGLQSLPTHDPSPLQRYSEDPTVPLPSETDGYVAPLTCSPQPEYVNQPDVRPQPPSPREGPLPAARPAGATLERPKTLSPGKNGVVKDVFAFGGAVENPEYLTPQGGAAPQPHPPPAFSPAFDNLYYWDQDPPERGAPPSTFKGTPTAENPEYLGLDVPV
Procedure: as §1

LIMK1 = LIMK1 (Homo sapiens (Human), UniProt P53667); assay: DiscoveRx Kd dose response, LIMK1; assay type: binding
Chain of LIMK1 (P53667 whole entry): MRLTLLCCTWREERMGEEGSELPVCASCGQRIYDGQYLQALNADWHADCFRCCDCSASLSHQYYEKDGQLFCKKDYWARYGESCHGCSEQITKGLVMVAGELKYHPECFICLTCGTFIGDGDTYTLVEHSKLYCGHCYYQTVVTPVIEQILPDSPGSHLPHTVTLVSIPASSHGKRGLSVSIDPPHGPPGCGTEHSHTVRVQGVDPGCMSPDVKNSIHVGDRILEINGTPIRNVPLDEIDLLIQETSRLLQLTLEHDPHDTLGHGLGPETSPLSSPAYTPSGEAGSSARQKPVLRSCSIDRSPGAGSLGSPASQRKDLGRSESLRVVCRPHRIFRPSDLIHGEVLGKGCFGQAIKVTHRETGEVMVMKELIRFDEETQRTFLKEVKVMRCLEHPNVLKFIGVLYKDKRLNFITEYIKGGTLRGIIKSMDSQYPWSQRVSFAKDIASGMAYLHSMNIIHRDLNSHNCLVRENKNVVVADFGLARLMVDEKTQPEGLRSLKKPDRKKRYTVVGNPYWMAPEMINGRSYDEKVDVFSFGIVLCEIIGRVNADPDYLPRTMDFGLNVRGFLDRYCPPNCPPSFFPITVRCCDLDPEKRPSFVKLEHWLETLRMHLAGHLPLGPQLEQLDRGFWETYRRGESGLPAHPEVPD
Procedure: as §1

MEK5 = MEK5 (Homo sapiens (Human), UniProt Q13163); assay: DiscoveRx Kd dose response, MEK5; assay type: binding
Chain of MEK5 (Q13163 whole entry): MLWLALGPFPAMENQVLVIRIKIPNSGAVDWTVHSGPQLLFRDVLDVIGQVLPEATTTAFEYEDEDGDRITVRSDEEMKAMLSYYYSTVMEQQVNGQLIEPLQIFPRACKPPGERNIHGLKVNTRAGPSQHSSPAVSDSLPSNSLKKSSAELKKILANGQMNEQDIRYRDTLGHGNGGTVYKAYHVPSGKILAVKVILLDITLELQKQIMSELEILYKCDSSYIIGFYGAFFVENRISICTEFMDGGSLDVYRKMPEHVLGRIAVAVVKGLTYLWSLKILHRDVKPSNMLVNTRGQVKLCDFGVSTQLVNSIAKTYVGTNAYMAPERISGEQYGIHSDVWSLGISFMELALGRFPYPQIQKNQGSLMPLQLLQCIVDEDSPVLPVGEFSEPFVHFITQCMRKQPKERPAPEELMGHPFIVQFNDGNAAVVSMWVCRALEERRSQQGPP
Procedure: as §1

TEC = TEC (Homo sapiens (Human), UniProt P42680); assay: DiscoveRx Kd dose response, TEC; assay type: binding
Procedure: as §1

[4] = Clinical pharmacokinetics of acalabrutinib and its major metabolite; assay type: in vivo, human; details: human, in vivo; single oral dose of 100 mg acalabrutinib; read-out: median terminal elimination half-life (t½) (converted)
Excerpt: The compound of Formula (I) was identified as the major metabolite in plasma with a geometric mean exposure (AUC) approximately 2- to 3-fold higher than the exposure of acalabrutinib.
Acalabrutinib and the major metabolite form a covalent bond with a cysteine residue in the BTK active site, leading to inhibition of BTK enzymatic activity. Acalabrutinib binding with the cysteine residue occurs rapidly and irreversibly and provides high target occupancy at steady state.

CYP3A4/5 = assay: CYP inhibition, CYP3A4/5; assay type: in vitro ADME
CYP2C9 = CYP2C9 (Homo sapiens (Human), UniProt P11712); assay: CYP inhibition, CYP2C9; assay type: in vitro ADME
Chain of CYP2C9 (P11712 whole entry): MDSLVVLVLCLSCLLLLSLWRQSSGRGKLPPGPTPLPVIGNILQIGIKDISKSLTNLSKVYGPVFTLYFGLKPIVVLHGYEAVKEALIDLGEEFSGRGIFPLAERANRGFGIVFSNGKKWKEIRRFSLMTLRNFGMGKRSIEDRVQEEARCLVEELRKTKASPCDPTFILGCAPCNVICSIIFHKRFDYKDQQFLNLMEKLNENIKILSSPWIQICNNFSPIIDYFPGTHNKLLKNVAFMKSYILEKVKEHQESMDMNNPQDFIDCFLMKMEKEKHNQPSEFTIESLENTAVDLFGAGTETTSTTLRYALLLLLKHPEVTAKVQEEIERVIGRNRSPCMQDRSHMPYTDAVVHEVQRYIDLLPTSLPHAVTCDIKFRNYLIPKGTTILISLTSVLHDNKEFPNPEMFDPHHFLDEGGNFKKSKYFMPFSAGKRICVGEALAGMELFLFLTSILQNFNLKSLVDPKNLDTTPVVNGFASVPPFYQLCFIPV

CYP2B6 = CYP2B6 (Homo sapiens (Human), UniProt P20813); assay: CYP inhibition, CYP2B6; assay type: in vitro ADME
Chain of CYP2B6 (P20813 whole entry): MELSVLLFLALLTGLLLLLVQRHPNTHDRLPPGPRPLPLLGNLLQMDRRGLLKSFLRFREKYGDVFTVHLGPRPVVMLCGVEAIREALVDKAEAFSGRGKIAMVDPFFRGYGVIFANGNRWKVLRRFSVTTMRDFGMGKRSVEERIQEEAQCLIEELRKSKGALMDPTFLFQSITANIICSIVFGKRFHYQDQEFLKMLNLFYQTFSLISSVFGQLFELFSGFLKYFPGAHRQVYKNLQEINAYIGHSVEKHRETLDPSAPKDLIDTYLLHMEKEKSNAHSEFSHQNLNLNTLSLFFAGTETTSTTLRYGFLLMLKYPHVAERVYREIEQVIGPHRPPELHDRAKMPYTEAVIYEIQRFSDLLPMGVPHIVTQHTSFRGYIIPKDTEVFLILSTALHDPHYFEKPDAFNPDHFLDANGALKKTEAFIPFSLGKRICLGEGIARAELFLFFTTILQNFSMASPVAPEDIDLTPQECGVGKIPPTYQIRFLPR

CYP2C19 = CYP2C19 (Homo sapiens (Human), UniProt P33261); assay: CYP inhibition, CYP2C19; assay type: in vitro ADME
Chain of CYP2C19 (P33261 whole entry): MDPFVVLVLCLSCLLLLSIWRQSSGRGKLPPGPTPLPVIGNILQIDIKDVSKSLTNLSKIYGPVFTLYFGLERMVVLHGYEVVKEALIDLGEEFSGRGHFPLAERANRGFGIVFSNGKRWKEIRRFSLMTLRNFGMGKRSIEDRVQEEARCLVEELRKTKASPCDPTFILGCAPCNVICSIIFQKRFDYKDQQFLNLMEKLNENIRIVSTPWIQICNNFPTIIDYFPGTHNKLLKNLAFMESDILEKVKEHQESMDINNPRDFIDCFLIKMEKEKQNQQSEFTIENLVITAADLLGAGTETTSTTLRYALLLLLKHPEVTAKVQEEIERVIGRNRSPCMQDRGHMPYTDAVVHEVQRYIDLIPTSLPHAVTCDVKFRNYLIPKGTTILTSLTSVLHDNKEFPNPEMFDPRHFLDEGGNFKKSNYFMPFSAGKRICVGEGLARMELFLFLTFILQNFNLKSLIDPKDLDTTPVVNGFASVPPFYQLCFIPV

CYP2D6 = CYP2D6 (Homo sapiens (Human), UniProt P10635); assay: CYP inhibition, CYP2D6; assay type: in vitro ADME
Chain of CYP2D6 (P10635 whole entry): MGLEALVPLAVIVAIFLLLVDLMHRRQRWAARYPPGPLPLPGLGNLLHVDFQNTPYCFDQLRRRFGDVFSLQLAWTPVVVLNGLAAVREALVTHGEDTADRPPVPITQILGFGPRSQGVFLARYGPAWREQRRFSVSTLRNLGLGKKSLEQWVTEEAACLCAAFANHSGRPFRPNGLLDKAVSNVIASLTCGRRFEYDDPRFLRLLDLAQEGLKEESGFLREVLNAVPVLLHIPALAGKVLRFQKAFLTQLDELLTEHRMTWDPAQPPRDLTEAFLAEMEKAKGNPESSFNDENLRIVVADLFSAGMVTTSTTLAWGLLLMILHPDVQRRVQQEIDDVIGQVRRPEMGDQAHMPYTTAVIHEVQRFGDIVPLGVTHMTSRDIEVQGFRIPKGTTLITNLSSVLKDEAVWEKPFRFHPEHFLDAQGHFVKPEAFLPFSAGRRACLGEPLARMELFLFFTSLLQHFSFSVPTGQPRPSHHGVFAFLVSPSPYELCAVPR

CYP3A4 = assay: CYP induction, CYP3A4; assay type: in vitro ADME

With CC#CC(=O)NCCCC(=O)c1nc(-c2ccc(C(=O)Nc3ccccn3)cc2)c2c(N)nccn12 [Formula (I), 4-(8-amino-3-(4-(but-2-ynamido)butanoyl)imidazo[1,5-a]pyrazin-1-yl)-N-(pyridin-2-yl)benzamide] the IC50 (ERBB4) was 343 ± 23 nM, the IC50 (BTK [1]) was 39 nM and the “Selectivity Score S(10)” value [2] was 0.005. For the same molecule, the “Selectivity Score S(35)” value [2] was 0.013, the Kd (BTK [3]) was 29 nM and the Kd (ERBB2) was 120 nM. For the same molecule, the Kd (LIMK1) was 400 nM, the Kd (MEK5) was 69 nM and the Kd (TEC) was 40 nM. For the same molecule, the half-life [4] was 6.9 h, the CYP3A4/5 inhibition (CYP3A4/5) was “does not inhibit” and the CYP2C9 inhibition (CYP2C9) was “weak inhibitor”. The CYP2B6 inhibition (CYP2B6) was “does not inhibit”, the CYP2C19 inhibition (CYP2C19) was “weak inhibitor” and the CYP2D6 inhibition (CYP2D6) was “does not inhibit”. The CYP3A4 induction (CYP3A4) was “weak inducer”.
